From patent US4656161A, “Increasing the enteral absorbability of heparin or heparinoids” (BASF Aktiengesellschaft, priority 1983, dated 1987)

Assays:
[1] = Heparin/heparinoid concentration in blood after oral administration of capsules to beagles (citrated plasma, chromogenic substrate); format: in vivo, beagle dogs; details: for heparin or heparinoid concentration in the blood, without surfactant (in words): without the addition of a surfactant; for heparin level in the blood, without surfactant: in the absence of added surfactant
Experimental: (§1) A. 2 of the capsules obtained as described in Examples 1a-1d or 3a-3b (total dose 28,000 IU of heparin or 700 mg of heparinoid) were administered orally to each of a number of beagles weighing about 7 kg. The concentration of active compound in the blood of the dogs was determined before and 30 minutes, 1 hour and 2, 3, 5, 8, 14 and 24 hours after the administration of heparin. The heparin was determined in citrated plasma, using a chromogenic substrate (cf. Thromb. Res. 8 (1976), 413 and Volume 2 of Reports, Thrombosis and Hemostasis Congress, Munster, 1982, Schattauer Verlag, Stuttgart, pages 238-246). The thrombin time was also determined (cf. Kleiner Gerinnungstatus, published by Behringwerke, 1982, page 40). The heparin or heparinoid concentration (c) in the blood and the quotient T of the thrombin time of the treated animals to that of the untreated animals reached their highest values after 2 hours.
(§2) Since, in contrast to heparin, heparinoids prolong the bleeding time (in this case the thrombin time) only slightly, if at all, they are not standardized on the basis of anticoagulant activity.

thrombin time = assay: Thrombin time after oral administration of capsules to beagles; format: in vivo, beagle dogs; details: without the addition of a surfactant
Experimental: as §1, §2

In the case of heparin [heparin used in Example 1a], the “heparin or heparinoid concentration in the blood, without surfactant (in words)” value [1] is reported as “did not result in a measurable heparin or heparinoid concentration in the blood” and the “thrombin time, without surfactant (in words)” value (thrombin time) is reported as “did not change the thrombin time”.

With heparin [heparin used in Example 1b] the “heparin or heparinoid concentration in the blood, without surfactant (in words)” value [1] was “did not result in a measurable heparin or heparinoid concentration in the blood” and the “thrombin time, without surfactant (in words)” value (thrombin time) was “did not change the thrombin time”.

For heparin [heparin used in Example 1c], the “heparin level in the blood, without surfactant” value [1] was 0.15 IU/ml and the “thrombin time, without surfactant (in words)” value (thrombin time) was “no change in the thrombin time”.

For heparin [heparin used in Example 1d], the “heparin level in the blood, without surfactant” value [1] was 0.25 IU/ml and the “thrombin time, without surfactant (in words)” value (thrombin time) was “no change in the thrombin time”.

In the case of “mucopolysaccharide polysulfate [heparinoid used in Example 3b]”, the “heparin or heparinoid concentration in the blood, without surfactant (in words)” value [1] is reported as “did not result in a measurable heparin or heparinoid concentration in the blood” and the “thrombin time, without surfactant (in words)” value (thrombin time) is reported as “did not change the thrombin time”.

With “sodium pentosan polysulfate [heparinoid used in Example 3a]” the “heparin or heparinoid concentration in the blood, without surfactant (in words)” value [1] was “did not result in a measurable heparin or heparinoid concentration in the blood” and the “thrombin time, without surfactant (in words)” value (thrombin time) was “did not change the thrombin time”.
